Measured values as given in patent US7141680B2, “Aromatic compounds possessing antifungal or antibacterial activity” (Genelabs Technologies, Inc., priority 2002, dated 2006).
Counter-ions that a name gives are not always drawn.

Assays:
bacteria = experiment: Minimum inhibitory concentration (MIC) assay, bacteria; assay type: cell-based
Method: (§1) The assays described below were used to measure the minimum inhibitory concentration (MIC) of a compound necessary to inhibit visible growth of the organism tested. These assays are adapted from NCCLS protocols M7-A4 and M27-A (NCCLS vol 17:9 and vol 17:2) as modified by Sandven, S., Clin. Micro. (1999) 37:12, p. 3856–3859. MIC values for Aspergillus species were determined using NCCLS protocol M38-P.
(§2) All compounds were dissolved in 100% DMSO to a stock concentration of 10 mM and used fresh stock compounds in powder form were kept frozen until needed and used freshly. When used for test purposes, compounds were diluted in the appropriate media depending on the organism being tested.
(§3) For yeast and aspergillus species, seven 1:2 serial dilutions of compound in appropriate media buffered with MOPS at pH 7.0 were prepared such that the final starting test compound concentrations were 44.4 μM for yeast and 50 μM aspergillus species. For bacteria, dilutions were made in growth media used for the particular bacteria being tested.
Five well-separated colonies from a 24 h Sabouraud Dextrose plate incubated at 35° C. were picked and resuspended into 2 mL of normal saline. The O.D.530 was read and the culture was adjusted to 0.5 McFarland units with normal saline. A 1:2000 dilution was made with RPMI 1640 media buffered with MOPS at pH 7.0 and 100 μL of this inoculum preparation was added to an equal volume of test compound-containing media. 25 μL of the redox indicator Alamar Blue (Biosource International) was added to each well and the plates were incubated for 48 h at 35° C. Wells having yeast growth changed color from blue to pink.
Inoculums are made in the same manner as yeast except all dilutions are made in normal saline, with a final dilution of 1:200 and an inoculum of 10 μL.

Aspergillus species = experiment: Minimum inhibitory concentration (MIC) assay, filamentous fungi; assay type: cell-based; settings: antifungal activity, lowest concentration at which 75% inhibition of growth is observed after 48 h
Method: as §1, §2, §3
Inoculums are made by incubating Aspergillus species for 7 days at 35° C. on potato dextrose agar slants. Slants are then covered with 1.0 mL of 0.85% saline, one drop of Tween 20 is added and colonies are teased with a sterile transfer loop to create a suspension which is allowed to sit for 5 min so heavier particles can drop out. The upper suspension is separated and adjusted to an optical density of 0.09 to 0.11. The resulting suspension is diluted 1:50, which yields 2× the final inoculum needed. Micro dilution trays are prepared as with yeast and incubated for 48 h at 35° C. For our purposes the MIC is defined as the lowest compound concentration at which 75% inhibition of growth is observed after 48 h.

Compound | MIC (bacteria) [µM] | MIC (Aspergillus species) [µM]
N=C(N)NCC(O)CNC(=O)c1cc2cc(NC(=O)c3ccc4[nH]c(C(=O)NCC(O)CNC(=N)N)cc4c3)ccc2[nH]1 (centres unmarked) [Compound 19, 1H-Indole-2,5-dicarboxylic acid 2-[(3-guanidino-2-hydroxy-propyl)-amide] 5-{[2-(3-guanidino-2-hydroxy-propylcarbamoyl)-1H-indol-5-yl]-amide}] | ≤ 45.5 | ≤ 50
N=C(N)CCNC(=O)c1cc2cc(NC(=O)c3cc4cc(C(=O)NCCNC(=N)N)ccc4[nH]3)ccc2[nH]1 [Compound 61, 1H-Indole-2,5-dicarboxylic acid 2-{[2-(2-carbamimidoylethylcarbamoyl)-1H-indol-5-yl]amide} 5-[(2-guanidinoethyl)amide]dihydrochloride] | ≤ 45.5 | ≤ 50
C/N=C(\NC)NCCCNC(=O)c1ccc2[nH]c(C(=O)Nc3ccc4[nH]c(C(=O)NCCN/C(=N/C)NC)cc4c3)cc2c1 [Compound 60, 1H-Indole-2,5-dicarboxylic acid 2-({2-[2-(N′,N″-dimethylguanidino)ethylcarbamoyl]-1H-indol-5-yl}amide) 5-{[3-(N′,N″-dimethylguanidino)propyl]amide}hydrochloride] | ≤ 45.5 | ≤ 50
C/N=C(\NC)NCCCNC(=O)c1ccc2[nH]c(C(=O)Nc3ccc4cc(C(=O)NCCCN/C(=N/C)NC)[nH]c4c3)cc2c1 [Compound 74, 1H-Indole-2,5-dicarboxylic acid 5-[(3-(N N′,N″-dimethyl-guanidino)-propyl)-amide] 2-{[2-(3-(N′,N″-dimethyl-guanidino)-propylcarbamoyl)-1H-indol-6-yl-]-amide}] | ≤ 45.5 | ≤ 50
CNC(=N)NCCNC(=O)c1ccc2[nH]c(C(=O)Nc3cc(C(=O)NCCNC(=N)NC)n(CC(C)C)c3)cc2c1 [Compound 81, 1H-Indole-2,5-dicarboxylic acid 2-({1−isobutyl-5-[2-(N′-methyl-guanidino)-ethylcarbamoyl]-1H-pyrrol-3-yl}amide) 5-{[2-(N′-methyl-guanidino)-ethyl]-amide}] | ≤ 45.5 | ≤ 50
CNC(=N)NCCNC(=O)c1ccc2[nH]c(C(=O)Nc3ccc4cc(C(=O)NCCNC(=N)NC)[nH]c4c3)cc2c1 [Compound 48, 1H-Indole-2,5-dicarboxylic acid 5-{[2-(N′-methyl-guanidino)-ethyl]-amide} 2-({2-[2-(N′methyl-guanidino)-ethylcarbamoyl]-1H-indol-6-yl}-amide)] | ≤ 45.5 | ≤ 50
CC(C)Cn1cc(NC(=O)c2cc3cc(C(=O)NCCNC(=N)N)ccc3[nH]2)cc1C(=O)NCCNC(=N)N [Compound 80, 1H-Indole-2,5-dicarboxylic acid 5-[(2-guanidino-ethyl)-amide] 2-{[5-(2-guanidino-ethylcarbamoyl)-1-isobutyl-1H-pyrrol-3-yl]-amide)] | ≤ 45.5 | ≤ 50
N=C(N)NCCCNC(=O)c1ccc2[nH]c(C(=O)Nc3ccc4[nH]c(C(=O)NCCCNC(=N)N)cc4c3)cc2c1 [Compound 75, 1H-Indole-2,5-dicarboxylic acid 5-[(3-guanidino-propyl)-amide] 2-{[2-(3-guanidino-propylcarbamoyl)-1H-indol-5-yl-]-amide}] | ≤ 45.5 | ≤ 50
CN/C(=N\CCO)NCCNC(=O)c1ccc2[nH]c(C(=O)Nc3ccc4[nH]c(C(=O)NCCN/C(=N/CCO)NC)cc4c3)cc2c1 [Compound 92, 1H-Indole-2,5-dicarboxylic acid 2-({2-[N′-(2-hydroxyethyl)-N″-methylguanidino]ethyl}amide) 5-({2-(2-[N′-(2-hydroxyethyl)-N″-methylguanidino]ethylcarbamoyl)-1H-indol-5-yl}amide]dihydrochloride] | ≤ 45.5 | ≤ 50
CNC(=N)NCCCNC(=O)c1ccc2[nH]c(C(=O)Nc3ccc4cc(C(=O)NCCCNC(=N)NC)[nH]c4c3)cc2c1 [Compound 73, 1H-Indole-2,5-dicarboxylic acid 5-[(3-(N′-methyl-guanidino)-propyl)-amide] 2-{[2-(3-(N′-methyl-guanidino)-propylcarbamoyl)-1H-indol-6-yl-]-amide}] | ≤ 45.5 | ≤ 50
